# Results: the kinase profiling compilation of Christmann-Franck et al. (2016)
# Columns and labels:
# Test in all cases: radiometric filter-binding kinase assay, Kinase HotSpot
# Settings in all cases: compound 0.5 µM; ATP 10 µM
# ABL1 (human) = ABL1 (human) (UniProt P00519)
# AURKA (human) = AURKA (human) (UniProt O14965)
# BLK (human) = BLK (human) (UniProt P51451)
# BRSK2 (human) = BRSK2 (human) (UniProt Q8IWQ3)
# CAMK2B (human) = CAMK2B (human) (UniProt Q13554)
# CDK2 CCNA2 (human) = CDK2 CCNA2 (human) (UniProt P24941+P20248)
# CDK2 CCNE1 (human) = CDK2 CCNE1 (human) (UniProt P24941+P24864)
# Sequence of CDK2 CCNE1 (human) (P24864 whole entry, looked up, other chains not shown): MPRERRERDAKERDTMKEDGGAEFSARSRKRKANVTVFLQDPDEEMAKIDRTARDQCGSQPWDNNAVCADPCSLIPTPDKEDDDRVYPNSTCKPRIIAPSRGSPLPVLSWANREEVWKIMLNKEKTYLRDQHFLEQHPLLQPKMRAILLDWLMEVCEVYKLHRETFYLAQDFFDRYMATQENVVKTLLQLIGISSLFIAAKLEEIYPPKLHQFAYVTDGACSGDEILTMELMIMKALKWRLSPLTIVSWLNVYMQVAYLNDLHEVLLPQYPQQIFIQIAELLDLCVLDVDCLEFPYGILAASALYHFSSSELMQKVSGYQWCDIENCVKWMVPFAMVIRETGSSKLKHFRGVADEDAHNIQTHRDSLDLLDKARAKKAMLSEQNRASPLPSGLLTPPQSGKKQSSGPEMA
# CSNK1G2 (human) = CSNK1G2 (human) (UniProt P78368)
# Sequence of CSNK1G2 (human) (P78368 whole entry, looked up): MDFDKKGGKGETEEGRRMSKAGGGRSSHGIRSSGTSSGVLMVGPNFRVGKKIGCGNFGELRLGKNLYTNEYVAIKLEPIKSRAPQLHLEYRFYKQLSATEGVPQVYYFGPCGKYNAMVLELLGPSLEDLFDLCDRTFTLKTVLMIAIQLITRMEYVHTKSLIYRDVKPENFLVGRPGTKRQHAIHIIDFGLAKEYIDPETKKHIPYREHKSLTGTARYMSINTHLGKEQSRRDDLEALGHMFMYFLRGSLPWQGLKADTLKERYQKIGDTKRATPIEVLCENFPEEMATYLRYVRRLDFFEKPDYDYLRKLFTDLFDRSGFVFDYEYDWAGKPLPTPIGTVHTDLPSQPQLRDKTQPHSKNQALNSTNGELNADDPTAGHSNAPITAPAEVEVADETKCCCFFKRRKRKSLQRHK
# DAPK3 (human) = DAPK3 (human) (UniProt O43293)
# DCLK2 (human) = DCLK2 (human) (UniProt Q8N568)
# EPHB3 (human) = EPHB3 (human) (UniProt P54753)
# FES (human) = FES (human) (UniProt P07332)
# FYN (human) = FYN (human) (UniProt P06241)
# IGF1R (human) = IGF1R (human) (UniProt P08069)
# LRRK2 (human) = LRRK2 (human) (UniProt Q5S007)
# MAPK10 (human) = MAPK10 (human) (UniProt P53779)
# MAPK13 (human) = MAPK13 (human) (UniProt O15264)
# Sequence of MAPK13 (human) (O15264 whole entry, looked up): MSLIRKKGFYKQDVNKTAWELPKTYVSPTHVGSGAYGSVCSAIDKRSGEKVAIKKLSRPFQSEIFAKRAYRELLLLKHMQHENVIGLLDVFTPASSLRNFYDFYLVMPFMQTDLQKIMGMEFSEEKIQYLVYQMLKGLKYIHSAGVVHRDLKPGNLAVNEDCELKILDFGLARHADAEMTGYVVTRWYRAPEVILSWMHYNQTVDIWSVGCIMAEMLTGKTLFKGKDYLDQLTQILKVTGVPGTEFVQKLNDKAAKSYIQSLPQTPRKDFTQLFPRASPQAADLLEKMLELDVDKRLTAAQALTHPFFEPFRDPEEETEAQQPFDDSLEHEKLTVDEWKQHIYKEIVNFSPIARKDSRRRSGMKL
# MAPK9 (human) = MAPK9 (human) (UniProt P45984)
# Sequence of MAPK9 (human) (P45984 whole entry, looked up): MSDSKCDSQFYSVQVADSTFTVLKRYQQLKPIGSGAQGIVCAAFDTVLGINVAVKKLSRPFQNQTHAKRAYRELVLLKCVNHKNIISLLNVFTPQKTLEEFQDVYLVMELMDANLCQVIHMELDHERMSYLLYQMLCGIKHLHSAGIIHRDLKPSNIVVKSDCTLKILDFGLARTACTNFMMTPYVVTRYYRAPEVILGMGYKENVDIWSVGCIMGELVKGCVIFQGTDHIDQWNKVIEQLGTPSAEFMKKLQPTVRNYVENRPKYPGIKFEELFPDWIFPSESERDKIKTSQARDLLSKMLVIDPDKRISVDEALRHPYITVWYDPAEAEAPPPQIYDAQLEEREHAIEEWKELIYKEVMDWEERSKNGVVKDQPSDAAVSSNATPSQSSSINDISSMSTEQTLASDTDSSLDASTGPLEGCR
# MAPKAPK3 (human) = MAPKAPK3 (human) (UniProt Q16644)
# MET (human) = MET (human) (UniProt P08581)
# Sequence of MET (human) (P08581 whole entry, looked up): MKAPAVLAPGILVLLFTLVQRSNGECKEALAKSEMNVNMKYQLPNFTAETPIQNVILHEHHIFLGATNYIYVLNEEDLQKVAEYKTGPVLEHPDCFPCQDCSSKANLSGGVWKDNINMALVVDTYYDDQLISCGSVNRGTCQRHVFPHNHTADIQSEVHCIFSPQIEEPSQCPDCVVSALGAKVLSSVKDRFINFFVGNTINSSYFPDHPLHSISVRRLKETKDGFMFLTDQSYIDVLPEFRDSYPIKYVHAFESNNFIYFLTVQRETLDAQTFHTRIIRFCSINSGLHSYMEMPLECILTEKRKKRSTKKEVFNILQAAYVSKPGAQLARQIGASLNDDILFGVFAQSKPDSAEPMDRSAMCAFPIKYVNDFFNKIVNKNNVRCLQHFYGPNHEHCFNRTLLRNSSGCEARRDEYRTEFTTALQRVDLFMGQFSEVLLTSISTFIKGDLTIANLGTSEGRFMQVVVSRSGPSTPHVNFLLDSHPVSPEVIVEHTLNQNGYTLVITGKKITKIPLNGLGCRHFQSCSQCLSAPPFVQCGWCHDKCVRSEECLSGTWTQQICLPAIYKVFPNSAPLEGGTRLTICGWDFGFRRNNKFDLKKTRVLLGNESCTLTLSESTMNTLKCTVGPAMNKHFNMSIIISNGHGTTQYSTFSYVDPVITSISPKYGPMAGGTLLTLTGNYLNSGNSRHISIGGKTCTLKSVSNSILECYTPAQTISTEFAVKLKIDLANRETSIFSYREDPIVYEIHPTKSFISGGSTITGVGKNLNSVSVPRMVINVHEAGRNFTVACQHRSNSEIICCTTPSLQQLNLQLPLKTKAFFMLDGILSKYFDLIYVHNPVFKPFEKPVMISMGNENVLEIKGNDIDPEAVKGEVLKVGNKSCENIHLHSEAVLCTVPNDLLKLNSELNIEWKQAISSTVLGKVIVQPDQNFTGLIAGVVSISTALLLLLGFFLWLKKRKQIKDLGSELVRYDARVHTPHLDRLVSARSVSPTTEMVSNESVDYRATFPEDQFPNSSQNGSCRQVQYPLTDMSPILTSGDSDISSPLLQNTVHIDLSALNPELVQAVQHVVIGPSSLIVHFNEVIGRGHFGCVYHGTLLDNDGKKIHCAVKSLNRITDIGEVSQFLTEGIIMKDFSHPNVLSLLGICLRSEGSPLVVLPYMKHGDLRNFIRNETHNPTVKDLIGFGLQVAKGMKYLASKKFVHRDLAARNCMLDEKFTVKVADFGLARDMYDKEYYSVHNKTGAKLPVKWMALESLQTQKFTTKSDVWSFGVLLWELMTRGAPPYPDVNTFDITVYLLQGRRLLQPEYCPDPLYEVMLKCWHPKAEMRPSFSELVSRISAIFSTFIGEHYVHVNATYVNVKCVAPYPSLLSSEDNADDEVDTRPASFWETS
# MINK1 (human) = MINK1 (human) (UniProt Q8N4C8)
# NEK2 (human) = NEK2 (human) (UniProt P51955)
# NTRK1 (human) = NTRK1 (human) (UniProt P04629)
# PRKACG (human) = PRKACG (human) (UniProt P22612)
# PRKCB2 (human) = PRKCB2 (human) (UniProt P05771)
# PTK2 (human) = PTK2 (human) (UniProt Q05397)
# RIPK2 (human) = RIPK2 (human) (UniProt O43353)
# ROCK1 (human) = ROCK1 (human) (UniProt Q13464)
# ROS1 (human) = ROS1 (human) (UniProt P08922)
# RPS6KA2 KD1 KD2 (human) = RPS6KA2 KD1 KD2 (human) (UniProt Q15349)
# RPS6KA4 KD2 (human) = RPS6KA4 KD2 (human) (UniProt O75676)
# Sequence of RPS6KA4 KD2 (human) (O75676 whole entry, looked up): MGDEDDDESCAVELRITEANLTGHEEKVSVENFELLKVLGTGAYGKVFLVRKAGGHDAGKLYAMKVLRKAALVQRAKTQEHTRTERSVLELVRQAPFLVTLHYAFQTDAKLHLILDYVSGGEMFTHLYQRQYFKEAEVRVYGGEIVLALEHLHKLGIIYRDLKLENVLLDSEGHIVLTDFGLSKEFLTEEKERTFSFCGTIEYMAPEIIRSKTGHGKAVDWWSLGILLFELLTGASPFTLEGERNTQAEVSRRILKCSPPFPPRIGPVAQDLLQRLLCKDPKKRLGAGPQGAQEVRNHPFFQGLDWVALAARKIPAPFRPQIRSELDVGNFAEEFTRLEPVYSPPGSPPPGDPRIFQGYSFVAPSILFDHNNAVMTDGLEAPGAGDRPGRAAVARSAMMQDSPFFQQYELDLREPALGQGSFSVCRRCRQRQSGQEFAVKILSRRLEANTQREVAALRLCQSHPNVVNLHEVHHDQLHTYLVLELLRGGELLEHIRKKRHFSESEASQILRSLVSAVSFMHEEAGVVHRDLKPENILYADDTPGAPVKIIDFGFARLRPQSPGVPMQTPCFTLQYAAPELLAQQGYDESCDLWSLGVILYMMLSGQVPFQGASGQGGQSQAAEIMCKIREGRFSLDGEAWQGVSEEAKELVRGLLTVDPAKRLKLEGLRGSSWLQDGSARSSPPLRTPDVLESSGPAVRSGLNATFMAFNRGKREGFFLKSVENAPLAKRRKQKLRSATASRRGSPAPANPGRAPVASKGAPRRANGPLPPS
# SRPK3 (human) = SRPK3 (human) (UniProt Q9UPE1)
# STK10 (human) = STK10 (human) (UniProt O94804)
# STK38 (human) = STK38 (human) (UniProt Q15208)
# STK39 (human) = STK39 (human) (UniProt Q9UEW8)
# TBK1 (human) = TBK1 (human) (UniProt Q9UHD2)
# TLK2 (human) = TLK2 (human) (UniProt Q86UE8)
# TSSK1B (human) = TSSK1B (human) (UniProt Q9BXA7)
# Sequence of TSSK1B (human) (Q9BXA7 whole entry, looked up): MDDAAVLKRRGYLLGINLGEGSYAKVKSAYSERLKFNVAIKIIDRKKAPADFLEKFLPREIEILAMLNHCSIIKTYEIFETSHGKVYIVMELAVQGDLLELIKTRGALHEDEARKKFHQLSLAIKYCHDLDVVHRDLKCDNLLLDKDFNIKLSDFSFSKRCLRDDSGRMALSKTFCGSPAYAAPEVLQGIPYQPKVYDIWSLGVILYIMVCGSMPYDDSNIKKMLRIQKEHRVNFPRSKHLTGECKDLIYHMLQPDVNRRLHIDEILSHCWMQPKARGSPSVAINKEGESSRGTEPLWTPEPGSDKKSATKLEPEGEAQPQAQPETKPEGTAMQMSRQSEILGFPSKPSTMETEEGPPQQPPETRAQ
# TTK (human) = TTK (human) (UniProt P33981)
# TYRO3 (human) = TYRO3 (human) (UniProt Q06418)
# ULK3 (human) = ULK3 (human) (UniProt Q6PHR2)
# Sequence of ULK3 (human) (Q6PHR2 whole entry, looked up): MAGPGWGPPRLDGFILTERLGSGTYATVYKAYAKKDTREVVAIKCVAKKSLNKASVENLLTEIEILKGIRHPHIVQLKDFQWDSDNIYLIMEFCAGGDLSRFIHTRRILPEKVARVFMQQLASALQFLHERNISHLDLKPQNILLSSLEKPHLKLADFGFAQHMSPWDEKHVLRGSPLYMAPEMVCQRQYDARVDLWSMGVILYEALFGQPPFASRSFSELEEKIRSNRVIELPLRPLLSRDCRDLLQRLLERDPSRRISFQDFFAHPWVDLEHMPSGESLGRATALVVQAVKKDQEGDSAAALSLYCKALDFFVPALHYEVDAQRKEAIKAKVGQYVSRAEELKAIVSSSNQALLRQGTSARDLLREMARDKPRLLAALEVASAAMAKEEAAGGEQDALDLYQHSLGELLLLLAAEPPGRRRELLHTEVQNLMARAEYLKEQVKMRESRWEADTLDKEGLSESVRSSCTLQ
# Sequence of AURKA (human) (O14965 whole entry, looked up): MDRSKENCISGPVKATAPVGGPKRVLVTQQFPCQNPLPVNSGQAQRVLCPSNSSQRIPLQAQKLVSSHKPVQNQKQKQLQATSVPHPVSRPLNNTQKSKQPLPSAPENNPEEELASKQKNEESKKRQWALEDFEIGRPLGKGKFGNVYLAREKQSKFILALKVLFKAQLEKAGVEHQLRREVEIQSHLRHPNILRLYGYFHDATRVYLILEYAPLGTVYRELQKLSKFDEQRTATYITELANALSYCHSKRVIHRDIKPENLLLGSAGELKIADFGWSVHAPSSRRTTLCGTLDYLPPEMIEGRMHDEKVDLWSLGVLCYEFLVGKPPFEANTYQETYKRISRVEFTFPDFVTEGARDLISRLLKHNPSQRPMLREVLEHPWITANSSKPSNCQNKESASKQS
compound,measurement,setting,value
N#C/C(=C(/N)Sc1ccc(N)cc1)c1ccccc1C(F)(F)F,residual activity,ABL1 (human),106%
same,residual activity,AURKA (human),103%
same,residual activity,BLK (human),111%
same,residual activity,BRSK2 (human),102%
same,residual activity,CAMK2B (human),93.5%
same,residual activity,CDK2 CCNA2 (human),95.9%
same,residual activity,CDK2 CCNE1 (human),95.4%
same,residual activity,CSNK1G2 (human),96.4%
same,residual activity,DAPK3 (human),102%
same,residual activity,DCLK2 (human),99.1%
same,residual activity,EPHB3 (human),96.7%
same,residual activity,FES (human),98%
same,residual activity,FYN (human),97.1%
same,residual activity,IGF1R (human),97.4%
same,residual activity,LRRK2 (human),100%
same,residual activity,MAPK10 (human),94.7%
same,residual activity,MAPK13 (human),104%
same,residual activity,MAPK9 (human),110%
same,residual activity,MAPKAPK3 (human),102%
same,residual activity,MET (human),77.2%
same,residual activity,MINK1 (human),104%
same,residual activity,NEK2 (human),94.9%
same,residual activity,NTRK1 (human),109%
same,residual activity,PRKACG (human),101%
same,residual activity,PRKCB2 (human),103%
same,residual activity,PTK2 (human),101%
same,residual activity,RIPK2 (human),91%
same,residual activity,ROCK1 (human),104%
same,residual activity,ROS1 (human),94.4%
same,residual activity,RPS6KA2 KD1 KD2 (human),99.2%
same,residual activity,RPS6KA4 KD2 (human),112%
same,residual activity,SRPK3 (human),96.3%
same,residual activity,STK10 (human),88.7%
same,residual activity,STK38 (human),93.1%
same,residual activity,STK39 (human),94.6%
same,residual activity,TBK1 (human),98.1%
same,residual activity,TLK2 (human),92.5%
same,residual activity,TSSK1B (human),103%
same,residual activity,TTK (human),93.6%
same,residual activity,TYRO3 (human),110%
same,residual activity,ULK3 (human),106%
Cc1[nH]c(/C=C2\C(=O)Nc3ccc(S(=O)(=O)N(C)c4cccc(Cl)c4)cc32)c(C)c1C(=O)N1CCN(C)CC1,residual activity,ABL1 (human),89.1%
same,residual activity,AURKA (human),27.6%
same,residual activity,BLK (human),51.7%
same,residual activity,BRSK2 (human),89%
same,residual activity,CAMK2B (human),89.8%
same,residual activity,CDK2 CCNA2 (human),103%
same,residual activity,CDK2 CCNE1 (human),87%
same,residual activity,CSNK1G2 (human),99.7%
same,residual activity,DAPK3 (human),106%
same,residual activity,DCLK2 (human),90.4%
same,residual activity,EPHB3 (human),98.6%
same,residual activity,FES (human),96%
same,residual activity,FYN (human),67.1%
same,residual activity,IGF1R (human),103%
same,residual activity,LRRK2 (human),6.63%
same,residual activity,MAPK10 (human),99%
same,residual activity,MAPK13 (human),100%
same,residual activity,MAPK9 (human),78%
same,residual activity,MAPKAPK3 (human),96.9%
same,residual activity,MET (human),1.18%
same,residual activity,MINK1 (human),68.7%
same,residual activity,NEK2 (human),50.8%
same,residual activity,NTRK1 (human),7.81%
same,residual activity,PRKACG (human),111%
same,residual activity,PRKCB2 (human),99.1%
same,residual activity,PTK2 (human),96.8%
same,residual activity,RIPK2 (human),92.7%
same,residual activity,ROCK1 (human),84%
same,residual activity,ROS1 (human),69.6%
same,residual activity,RPS6KA2 KD1 KD2 (human),75.4%
same,residual activity,RPS6KA4 KD2 (human),109%
same,residual activity,SRPK3 (human),84.8%
same,residual activity,STK10 (human),9.05%
same,residual activity,STK38 (human),102%
same,residual activity,STK39 (human),84.7%
same,residual activity,TBK1 (human),60.4%
same,residual activity,TLK2 (human),95.8%
same,residual activity,TSSK1B (human),21.7%
same,residual activity,TTK (human),90.7%
same,residual activity,TYRO3 (human),34.7%
same,residual activity,ULK3 (human),55.3%
